Results from the supplement of paper PMC8671470.

Assays:
Experiment in all cases: cell viability (% survival relative to DMSO control, bortezomib = 0%); higher = less cytotoxic
Conditions in all cases: 72 h
HEL = tested on: HEL
In short: (§1)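 Reported values are percent survival from duplicate wells, averaged. Fifteen myeloid leukaemia cell lines were treated in 384-well plates with compounds at 1, 10, 100, 1000 or 10000 nM for 72 h at 37 °C in 5% CO2. Signals from CellTiter-Glo luminescence were scaled with vehicle as 100% and a 10 µM positive control as 0%.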

MV4-11 = tested on: MV4-11
In short: as §1

Mono-Mac-6 = tested on: Mono-Mac-6
In short: as §1

NOMO-1 = tested on: NOMO-1
In short: as §1

SMILES: [N-]=[N+]=CC(=O)CC[C@H](N)C(=O)O [6-Diazo-5-oxo-L-norleucine]
- cell viability (HEL; 1 nM): 98.6%
- cell viability (HEL; 10 nM): 109%
- cell viability (HEL; 100 nM): 98.5%
- cell viability (HEL; 1000 nM): 95.1%
- cell viability (HEL; 10000 nM): 96.6%
- cell viability (MV4-11; 1 nM): 78.2%
- cell viability (MV4-11; 10 nM): 106%
- cell viability (MV4-11; 100 nM): 108%
- cell viability (MV4-11; 1000 nM): 97.1%
- cell viability (MV4-11; 10000 nM): 105%
- cell viability (Mono-Mac-6; 1 nM): 88%
- cell viability (Mono-Mac-6; 10 nM): 90.2%
- cell viability (Mono-Mac-6; 100 nM): 92.4%
- cell viability (Mono-Mac-6; 1000 nM): 97.8%
- cell viability (Mono-Mac-6; 10000 nM): 104%
- cell viability (NOMO-1; 1 nM): 98.9%
- cell viability (NOMO-1; 10 nM): 99.9%
- cell viability (NOMO-1; 100 nM): 104%
- cell viability (NOMO-1; 1000 nM): 97.1%
- cell viability (NOMO-1; 10000 nM): 106%

SMILES: Sc1ncnc2nc[nH]c12 [6-mercaptopurine]
- cell viability (HEL; 1 nM): 96.5%
- cell viability (HEL; 10 nM): 98.2%
- cell viability (HEL; 100 nM): 95.6%
- cell viability (HEL; 1000 nM): 70.6%
- cell viability (HEL; 10000 nM): 7.42%
- cell viability (MV4-11; 1 nM): 87%
- cell viability (MV4-11; 10 nM): 85.5%
- cell viability (MV4-11; 100 nM): 80.1%
- cell viability (MV4-11; 1000 nM): 27.3%
- cell viability (MV4-11; 10000 nM): 24.7%
- cell viability (Mono-Mac-6; 1 nM): 97.2%
- cell viability (Mono-Mac-6; 10 nM): 97.7%
- cell viability (Mono-Mac-6; 100 nM): 85.9%
- cell viability (Mono-Mac-6; 1000 nM): 53.7%
- cell viability (Mono-Mac-6; 10000 nM): 15.5%
- cell viability (NOMO-1; 1 nM): 108%
- cell viability (NOMO-1; 10 nM): 86.7%
- cell viability (NOMO-1; 100 nM): 88.6%
- cell viability (NOMO-1; 1000 nM): 41.5%
- cell viability (NOMO-1; 10000 nM): 30.5%

SMILES: O=C(O)CC[C@H](NC(=O)c1ccc([N+](=O)[O-])cc1)C(=O)O [(S)-2-(4-Nitrobenzamido)pentanedioic acid]
- cell viability (HEL; 1 nM): 89.9%
- cell viability (HEL; 10 nM): 107%
- cell viability (HEL; 100 nM): 94%
- cell viability (HEL; 1000 nM): 96.3%
- cell viability (HEL; 10000 nM): 90.4%
- cell viability (MV4-11; 1 nM): 89.6%
- cell viability (MV4-11; 10 nM): 103%
- cell viability (MV4-11; 100 nM): 80%
- cell viability (MV4-11; 1000 nM): 96.6%
- cell viability (MV4-11; 10000 nM): 85.9%
- cell viability (Mono-Mac-6; 1 nM): 96%
- cell viability (Mono-Mac-6; 10 nM): 103%
- cell viability (Mono-Mac-6; 100 nM): 94.9%
- cell viability (Mono-Mac-6; 1000 nM): 97.6%
- cell viability (Mono-Mac-6; 10000 nM): 98%
- cell viability (NOMO-1; 1 nM): 92.4%
- cell viability (NOMO-1; 10 nM): 95%
- cell viability (NOMO-1; 100 nM): 99.6%
- cell viability (NOMO-1; 1000 nM): 105%
- cell viability (NOMO-1; 10000 nM): 95.6%

SMILES: O=C1Nc2ccccc2/C1=C\NCCc1ccc(O)c(O)c1 [AC1NZZMF]
- cell viability (HEL; 1 nM): 101%
- cell viability (HEL; 10 nM): 99.5%
- cell viability (HEL; 100 nM): 104%
- cell viability (HEL; 1000 nM): 112%
- cell viability (HEL; 10000 nM): 96.9%
- cell viability (MV4-11; 1 nM): 113%
- cell viability (MV4-11; 10 nM): 89.4%
- cell viability (MV4-11; 100 nM): 93.8%
- cell viability (MV4-11; 1000 nM): 84.9%
- cell viability (MV4-11; 10000 nM): 75.7%
- cell viability (Mono-Mac-6; 1 nM): 105%
- cell viability (Mono-Mac-6; 10 nM): 102%
- cell viability (Mono-Mac-6; 100 nM): 102%
- cell viability (Mono-Mac-6; 1000 nM): 96.9%
- cell viability (Mono-Mac-6; 10000 nM): 74.4%
- cell viability (NOMO-1; 1 nM): 105%
- cell viability (NOMO-1; 10 nM): 111%
- cell viability (NOMO-1; 100 nM): 98%
- cell viability (NOMO-1; 1000 nM): 113%
- cell viability (NOMO-1; 10000 nM): 99.9%

SMILES: Cc1ccc(S(=O)(=O)NC2c3ccccc3Oc3ccccc32)cc1 [AH-7614]
- cell viability (HEL; 1 nM): 107%
- cell viability (HEL; 10 nM): 96.9%
- cell viability (HEL; 100 nM): 103%
- cell viability (HEL; 1000 nM): 107%
- cell viability (HEL; 10000 nM): 98.9%
- cell viability (MV4-11; 1 nM): 94%
- cell viability (MV4-11; 10 nM): 94.1%
- cell viability (MV4-11; 100 nM): 100%
- cell viability (MV4-11; 1000 nM): 94.7%
- cell viability (MV4-11; 10000 nM): 93.3%
- cell viability (Mono-Mac-6; 1 nM): 101%
- cell viability (Mono-Mac-6; 10 nM): 95.7%
- cell viability (Mono-Mac-6; 100 nM): 111%
- cell viability (Mono-Mac-6; 1000 nM): 94.9%
- cell viability (Mono-Mac-6; 10000 nM): 101%
- cell viability (NOMO-1; 1 nM): 102%
- cell viability (NOMO-1; 10 nM): 102%
- cell viability (NOMO-1; 100 nM): 104%
- cell viability (NOMO-1; 1000 nM): 97.1%
- cell viability (NOMO-1; 10000 nM): 103%

SMILES: C[C@]12CC[C@H](O)CC1=CC[C@@H]1[C@@H]2CC[C@]2(C)C(c3cccnc3)=CC[C@@H]12 [Abiraterone]
- cell viability (HEL; 1 nM): 113%
- cell viability (HEL; 10 nM): 109%
- cell viability (HEL; 100 nM): 110%
- cell viability (HEL; 1000 nM): 112%
- cell viability (HEL; 10000 nM): 111%
- cell viability (MV4-11; 1 nM): 96.4%
- cell viability (MV4-11; 10 nM): 96.5%
- cell viability (MV4-11; 100 nM): 107%
- cell viability (MV4-11; 1000 nM): 114%
- cell viability (MV4-11; 10000 nM): 99%
- cell viability (Mono-Mac-6; 1 nM): 97.7%
- cell viability (Mono-Mac-6; 10 nM): 101%
- cell viability (Mono-Mac-6; 100 nM): 85.2%
- cell viability (Mono-Mac-6; 1000 nM): 96.1%
- cell viability (Mono-Mac-6; 10000 nM): 108%
- cell viability (NOMO-1; 1 nM): 106%
- cell viability (NOMO-1; 10 nM): 104%
- cell viability (NOMO-1; 100 nM): 97.6%
- cell viability (NOMO-1; 1000 nM): 112%
- cell viability (NOMO-1; 10000 nM): 108%

SMILES: O=C(COc1ccc(C(=O)c2ccccc2)cc1)NC1CCN(Cc2ccccc2)CC1 [AdipoRon]
- cell viability (HEL; 1 nM): 94.5%
- cell viability (HEL; 10 nM): 96.6%
- cell viability (HEL; 100 nM): 96.6%
- cell viability (HEL; 1000 nM): 97.5%
- cell viability (HEL; 10000 nM): 85.4%
- cell viability (MV4-11; 1 nM): 86.7%
- cell viability (MV4-11; 10 nM): 92%
- cell viability (MV4-11; 100 nM): 94.2%
- cell viability (MV4-11; 1000 nM): 91.9%
- cell viability (MV4-11; 10000 nM): 48.6%
- cell viability (Mono-Mac-6; 1 nM): 96.3%
- cell viability (Mono-Mac-6; 10 nM): 101%
- cell viability (Mono-Mac-6; 100 nM): 99.9%
- cell viability (Mono-Mac-6; 1000 nM): 98.1%
- cell viability (Mono-Mac-6; 10000 nM): 90.7%
- cell viability (NOMO-1; 1 nM): 102%
- cell viability (NOMO-1; 10 nM): 107%
- cell viability (NOMO-1; 100 nM): 96.3%
- cell viability (NOMO-1; 1000 nM): 96.7%
- cell viability (NOMO-1; 10000 nM): 91.1%
